The record followed here is ChEMBL document CHEMBL1131939, “The synthesis and P388 cytotoxicity of mycalazol 11 and related 5-acyl-2-hydroxymethylpyrroles” (1999).

≈ marks a conversion by molar mass, not a printed value.

For this experiment, the system named is P388. Kind of experiment: In vitro cytotoxicity against the P388 murine leukemia cell line was determined. It is filed as functional. Conditions: Mus musculus, read-out: ID50 (the source's name).

`CCCCCCCCCCCCCCCCCCC(=O)c1ccc(CO)[nH]1`: the IC50 was found to be 24 µg/mL (≈ 63.6 µM).

Regarding `CCCCCCCCCCCC(=O)c1ccc(CO)[nH]1`, the IC50 is 21 µg/mL (≈ 75.2 µM).

As for `CCCCCCCCCCCCC(=O)c1ccc(CO)[nH]1`, the IC50 was determined as 52 µg/mL (≈ 177 µM).

With `CCCCCC(=O)c1ccc(CO)[nH]1`, the IC50 came to 78 µg/mL (≈ 399 µM).
